Reference: patent US11999727B2 (Tango Therapeutics, Inc., priority 2020, dated 2024)

Assays:
PRMT5 [1] = biological target: T1, PRMT5 (Homo sapiens, UniProt O14744); test: PRMT5 biochemical IC50 assay with SAM as cofactor; conditions: PRMT5, SAM as cofactor; read-out: SAM IC50
T1 construct: purchased Viva (custom protein)

PRMT5 [2] = biological target: T1, PRMT5; test: PRMT5 biochemical IC50 assay with no cofactor; conditions: PRMT5, no cofactor; read-out: No Cofactor/rel IC50
Description: Table 1 indicates IC50 values (μM) against PRMT5 for exemplary compounds in the presence of SAM as cofactor, with no cofactor, and with MTA as cofactor, respectively (columns 4-6). […] Ki values can be calculated from the IC50 values as described in the Examples section. As detailed in the Examples section, for the assay performed in the presence of SAM, IC50=Ki×1.5 (Ki=IC50/1.5).

PRMT5 [3] = biological target: T1, PRMT5; test: PRMT5 biochemical IC50 assay with MTA as cofactor; conditions: PRMT5, MTA as cofactor; read-out: MTA IC50
[4] = test system: HAP1 MTAP-intact cell line; test: SDMA in-cell western assay, HAP1 MTAP-intact; assay type: cell-based; conditions: Homo sapiens, HAP1, SDMA in-cell western, HAP1 MTAP-intact; read-out: MTAP HAP1 intact IC50
How it was run: (§1)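 Compounds were tested in HAP1 cells differing only in MTAP status (endogenous expression versus null). Cellular SDMA levels were then measured by in-cell western, giving an IC50 in each background.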

[5] = test system: HAP1 MTAP-deleted cell line; test: SDMA in-cell western assay, HAP1 MTAP-deleted; assay type: cell-based; conditions: for IC50: Homo sapiens, HAP1, SDMA in-cell western, HAP1 MTAP-deleted, read-out: HAP 1 MTAP deleted IC50; for MTAP intact/deleted ratio: IC50 ratio HAP1 MTAP-intact / HAP1 MTAP-deleted, SDMA in-cell western
How it was run: as §1

[6] = test system: HAP1 MTAP-deleted cell line; test: Viability assay, MTAP-deleted cell line; assay type: cell-based; conditions: Homo sapiens, HAP1, viability assay, MTAP-deleted cell line; read-out: HAP1 MTAP deleted viability
Description: Table 1 additionally indicates IC50 values in a viability assay for the MTAP-deleted cell line (column 10), indicating the effect of treatment with compound on cell survival.

T1 sequence (O14744 whole entry): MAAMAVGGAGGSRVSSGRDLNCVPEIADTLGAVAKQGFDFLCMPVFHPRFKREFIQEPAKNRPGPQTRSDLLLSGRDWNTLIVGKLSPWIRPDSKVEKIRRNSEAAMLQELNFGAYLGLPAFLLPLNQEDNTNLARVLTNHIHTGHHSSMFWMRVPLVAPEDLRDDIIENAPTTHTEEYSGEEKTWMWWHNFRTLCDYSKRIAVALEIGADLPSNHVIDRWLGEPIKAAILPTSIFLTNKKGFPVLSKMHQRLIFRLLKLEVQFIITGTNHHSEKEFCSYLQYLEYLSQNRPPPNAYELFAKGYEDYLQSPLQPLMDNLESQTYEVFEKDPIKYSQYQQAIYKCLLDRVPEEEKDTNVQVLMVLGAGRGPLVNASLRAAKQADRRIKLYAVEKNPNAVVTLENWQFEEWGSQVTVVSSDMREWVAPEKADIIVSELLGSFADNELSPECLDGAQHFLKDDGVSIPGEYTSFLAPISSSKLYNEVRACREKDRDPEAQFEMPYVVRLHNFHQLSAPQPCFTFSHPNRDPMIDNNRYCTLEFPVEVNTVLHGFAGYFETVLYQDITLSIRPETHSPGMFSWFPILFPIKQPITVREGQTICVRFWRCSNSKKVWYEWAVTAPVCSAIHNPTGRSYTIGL
T1 sequence (Q9BQA1 whole entry partner): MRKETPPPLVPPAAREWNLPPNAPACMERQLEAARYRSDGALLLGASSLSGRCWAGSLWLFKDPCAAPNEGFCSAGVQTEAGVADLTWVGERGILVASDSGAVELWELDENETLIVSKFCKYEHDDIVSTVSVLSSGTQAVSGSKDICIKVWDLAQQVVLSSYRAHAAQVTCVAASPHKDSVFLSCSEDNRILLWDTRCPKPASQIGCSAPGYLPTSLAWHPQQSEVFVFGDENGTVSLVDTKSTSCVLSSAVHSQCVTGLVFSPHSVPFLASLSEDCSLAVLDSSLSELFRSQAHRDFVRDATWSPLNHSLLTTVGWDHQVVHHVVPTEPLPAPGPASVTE

Row | SMILES | IC50 (PRMT5 [1]) [nM] | IC50 (PRMT5 [2]) [nM] | IC50 (PRMT5 [3]) [nM] | IC50 [4] [nM] | IC50 [5] [nM] | MTAP intact/deleted ratio [5] | IC50 [6] [nM]
1 | C[C@@H]1CC[C@@H](c2ccn(-c3cc[nH]n3)n2)N(C(=O)C(=O)Nc2cncc(C(N)=O)c2)C1 (single isomer, unassigned) [Compound 899] | 50 to 500 | 50 to 500 | < 50 | > 1000 | 100 to 1000 | A (an IC50 ratio greater than or equal to 10 fold) | 1000 to 10000
2 | Cc1cc(NC(=O)C(=O)N2C[C@H](C)CC[C@H]2c2ccc(-c3cncs3)cc2)cnc1N (single isomer, unassigned) [Compound 900, N-(6-amino-5-methylpyridin-3-yl)-2-(5-methyl-2-(4-(thiazol-5-yl)phenyl)piperidin-1-yl)-2-oxoacetamide] | > 500 | > 500 | > 500 | > 1000 | > 1000 | C (an IC50 ratio of less than 3 fold) | > 10000
3 | Cc1cc(NC(=O)C(=O)N2C[C@@H](C)CC[C@@H]2c2cccc(S(C)(=O)=O)c2)cnc1N (single isomer, unassigned) [Compound 901] | > 500 | > 500 | > 500 | > 1000 | > 1000 | C (an IC50 ratio of less than 3 fold) | > 10000
4 | CCc1cc(NC(=O)C(=O)N2C[C@@H](C)CC[C@@H]2c2ccc(NS(C)(=O)=O)cc2)cnc1N (single isomer, unassigned) [Compound 902] | 50 to 500 | < 50 | < 50 | 100 to 1000 | < 100 | A (an IC50 ratio greater than or equal to 10 fold) | < 1000
5 | Cc1ncc(NC(=O)C(=O)N2C[C@@H](C)CC[C@@H]2c2ccc3c(c2)CCC(=O)N3)cc1C(F)F (single isomer, unassigned) [Compound 903] | > 500 | > 500 | > 500 | > 1000 | > 1000 | B (an IC50 ratio greater than or equal to 3 fold but lower than 10 fold) | > 10000
6 | COc1ncc(NC(=O)C(=O)N2C[C@@H](C)C(F)(F)C[C@@H]2c2ccc(C)nc2)cc1C(N)=O (single isomer, unassigned) [Compound 908] | 50 to 500 | 50 to 500 | < 50 | > 1000 | < 100 | A (an IC50 ratio greater than or equal to 10 fold) | 1000 to 10000
7 | COc1ncc(NC(=O)C(=O)N2C[C@@H](C)CC[C@@H]2c2ccc(NC(C)=O)nc2)cc1C(N)=O (single isomer, unassigned) [Compound 910] | > 500 | > 500 | > 500 | > 1000 | > 1000 | B (an IC50 ratio greater than or equal to 3 fold but lower than 10 fold) | > 10000
8 | CCc1cc(NC(=O)C(=O)N2C[C@@H](C)CC[C@@H]2c2ccn(-c3cc[nH]n3)n2)cnc1N (single isomer, unassigned) [Compound 913] | > 500 | > 500 | > 500 | > 1000 | > 1000 | C (an IC50 ratio of less than 3 fold) | > 10000
9 | COc1ncc(NC(=O)C(=O)N2C[C@@H](C)CC[C@@H]2c2ccc3cnccc3c2)cc1C(N)=O (single isomer, unassigned) [Compound 914] | 50 to 500 | < 50 | < 50 | 100 to 1000 | < 100 | A (an IC50 ratio greater than or equal to 10 fold) | < 1000
10 | CC(=O)Nc1ccc([C@H]2CC[C@H](C)CN2C(=O)C(=O)Nc2cnc(N)c(C)c2)cn1 (single isomer, unassigned) [Compound 915] | 50 to 500 | < 50 | < 50 | 100 to 1000 | < 100 | A (an IC50 ratio greater than or equal to 10 fold) | 1000 to 10000
11 | COc1ncc(NC(=O)C(=O)N2C[C@H](C)CC[C@H]2c2ccc3[nH]c(C)nc3c2)cc1C(N)=O (single isomer, unassigned) [Compound 917] | 50 to 500 | < 50 | < 50 | > 1000 | < 100 | A (an IC50 ratio greater than or equal to 10 fold) | 1000 to 10000
12 | COc1ncc(NC(=O)C(=O)N2C[C@@H](C)CC[C@@H]2c2cccc3[nH]ncc23)cc1C(N)=O (single isomer, unassigned) [Compound 918] | 50 to 500 | 50 to 500 | < 50 | > 1000 | < 100 | A (an IC50 ratio greater than or equal to 10 fold) | < 1000
13 | CCc1cc(NC(=O)C(=O)N2C[C@H](C)CC[C@H]2c2ccc3cnccc3c2)cnc1N (single isomer, unassigned) [Compound 919] | 50 to 500 | < 50 | < 50 | 100 to 1000 | < 100 | A (an IC50 ratio greater than or equal to 10 fold) | < 1000
14 | CCc1cc(NC(=O)C(=O)N2C[C@H](C)CC[C@H]2c2ccc(NC(C)=O)nc2)cnc1N (single isomer, unassigned) [Compound 921] | > 500 | > 500 | > 500 | > 1000 | > 1000 | B (an IC50 ratio greater than or equal to 3 fold but lower than 10 fold) | > 10000
15 | COc1ncc(NC(=O)C(=O)N2C[C@@H](C)CC[C@@H]2c2ccc3[nH]c(C)nc3c2)cc1C(N)=O (single isomer, unassigned) [Compound 924] | > 500 | > 500 | > 500 | > 1000 | > 1000 | B (an IC50 ratio greater than or equal to 3 fold but lower than 10 fold) | > 10000
16 | CCc1cc(NC(=O)C(=O)N2C[C@@H](C)CC[C@@H]2c2ccc(NC(C)=O)nc2)cnc1N (single isomer, unassigned) [Compound 925] | 50 to 500 | < 50 | < 50 | 100 to 1000 | < 100 | A (an IC50 ratio greater than or equal to 10 fold) | < 1000
17 | COc1ncc(NC(=O)C(=O)N2C[C@H](C)CC[C@H]2c2cccc3[nH]ncc23)cc1C(N)=O (single isomer, unassigned) [Compound 926] | > 500 | > 500 | > 500 | > 1000 | > 1000 | C (an IC50 ratio of less than 3 fold) | > 10000
18 | CC(=O)Nc1ccc([C@@H]2CC[C@@H](C)CN2C(=O)C(=O)Nc2cnc(N)c(C)c2)cn1 (single isomer, unassigned) [Compound 927] | > 500 | > 500 | > 500 | > 1000 | > 1000 | C (an IC50 ratio of less than 3 fold) | > 10000
19 | CCc1cc(NC(=O)C(=O)N2C[C@@H](C)CC[C@@H]2c2cccc3[nH]ncc23)cnc1N (single isomer, unassigned) [Compound 928] | 50 to 500 | < 50 | < 50 | > 1000 | < 100 | A (an IC50 ratio greater than or equal to 10 fold) | < 1000
20 | CCc1cc(NC(=O)C(=O)N2C[C@@H](C)CC[C@@H]2c2ccc3cnccc3c2)cnc1N (single isomer, unassigned) [Compound 929] | > 500 | > 500 | > 500 | > 1000 | 100 to 1000 | A (an IC50 ratio greater than or equal to 10 fold) | 1000 to 10000
21 | COc1ncc(NC(=O)C(=O)N2C[C@H](C)CC[C@H]2c2ccc(NC(C)=O)nc2)cc1C(N)=O (single isomer, unassigned) [Compound 930] | 50 to 500 | 50 to 500 | < 50 | > 1000 | < 100 | A (an IC50 ratio greater than or equal to 10 fold) | 1000 to 10000
22 | CCc1cc(NC(=O)C(=O)N2C[C@H](C)CC[C@H]2c2ccn(-c3cc[nH]n3)n2)cnc1N (single isomer, unassigned) [Compound 931] | 50 to 500 | 50 to 500 | < 50 | 100 to 1000 | < 100 | A (an IC50 ratio greater than or equal to 10 fold) | < 1000
